Tests used:
Assay type in all cases: cell-based, human
Kelly cells = test: Cellular proliferation assay (ATP-Lite), Kelly cells; conditions: Table 7, SEQ ID NO: 5 and guanine-group mutants
Protocol: For the purpose of assessing the gene modulation ability of the oligonucleotides of the present invention, the effect of their administration on cell viability was determined.
For this purpose 5×10^3 cells per well were seeded into 96-well cell culture plates (experiments conducted in triplicate) with 100 μl of OPTI-MEM (GIBCO BRL) medium containing 4% FBS and 2 mM of L-glutammine.
The PNA oligonucleotides were administered at different concentrations (1 μM-2.5 μM-5 μM-10 μM) in order to observe a dose-effect relationship.
As regards all the other oligonucleotides, the concentrations at which they administered are listed in the paragraph:
The viability of the treated cells was determined at 48, 72, 96 and 168 hours after treatment.
Cell viability was assessed by means of an ATP-Lite assay (Luminescence ATP Detection Assay System, PerkinElmer) and is reported as the ratio between the average signal of the treated wells compared to the average value of the wells of untreated control cells. The cells were processed following the instructions provided with the kit.
The assays were performed on the same cell lines used to determine the levels of the MYCN gene messenger and listed in the paragraph: Treatments with Oligonucleotides—QT-PCR.
(§1) As far as the PNA oligonucleotides are concerned, the results regarding their ability to inhibit the transcription of the MYCN gene and proliferation of Kelly cells are shown in Table 1.
The ability of the tested oligonucleotides to inhibit the messenger of the gene of interest was measured and the proliferative capacity of the cells following administration of the oligonucleotides was also assessed.

MYCN gene [1] = test: QT-PCR, MYCN mRNA in Kelly cells; parameters: mRNA Inhibition (%)(Kelly): concentration or dose not given beside the values; conditions: for mRNA Inhibition (%)(Kelly): Table 7, SEQ ID NO: 5 and guanine-group mutants
Protocol: For the purpose of assessing the ability of the oligonucleotides of the present invention to modulate the expression of the target genes, their ability to reduce the quantity of messenger RNA was analyzed using the Real-Time PCR technique.
For this purpose, use was made of 24-well plates, which were seeded with 5.0×10^4 cells with 0.3 ml of OPTI-MEM (GIBCO BRL) medium, 4% FBS and 2 mM L-glutammine (experiments in triplicate) per well.
The cells were incubated for 24 hours at 37° C., in an atmosphere containing 5% CO2 to permit adherence to the base of the wells.
Each oligonucleotide analyzed, except for the PNA oligonucleotides, was incubated beforehand with 2 μl of Lipofectamine 2000 (Invitrogen), with 0.3 mL of serum-free OPTI-MEM (GIBCO BRL) medium.
For each well, the oligonucleotides were analyzed at the following final concentrations: • the antisense oligonucleotides siRNA and siRNA gapmer (i.e. the oligonucleotides containing one or more monomers of chemically modified nucleic acids at the 3′ or 5′ end, while in the central portion they have monomers of nucleic acids that have not been modified or have been modified at the level of the phosphodiester bond as a phosphorothioate bond) were used at 200 nM; • the antisense oligonucleotides containing phosphorothioate DNA monomers, the RNA antigene oligonucleotides (agRNA) and the oligonucleotides containing DNA monomers and LNA monomers were used at 10 μM; • the morpholino oligonucleotides were used at a concentration of 1 μM, and • the PNA oligonucleotides were administered at a concentration of 1 μM.
The cells were treated with the oligonucleotides, adding FBS up to 4% 6 hours after administration of the same. After 24 hours the total RNA was extracted from each well and purified using the RNeasy Mini Kit (QIAGEN).
Assays were performed on 8 cell lines obtained from 5 different human tumours which are correlated with MYCN expression, i.e.: • as a neuroblastoma model use was made of the cell lines Kelly, IMR-32 (where the MYCN gene is amplified and superexpressed) and SKNBE2c and LAN1 (where the MYCN gene is amplified and superexpressed and the p53 gene is mutated); • as a rabdomiosarcoma model use was made of the cell line RH30, where the MYCN gene is amplified and superexpressed; • as a Wilms' tumour model use was made of the cell line WiT49, where the MYCN gene is amplified and superexpressed; • as a retinoblastoma model use was made of the cell line Y79, where the MYCN gene is amplified and superexpressed; and • as a model of small cell lung cancer use was made of the cell line H69 where the MYCN gene is amplified and superexpressed.
As a control, use was made of the same cell lines as listed above treated with sterile water instead of oligonucleotides. Each RNA sample was quantified (in duplicate) using a NanoDrop ND-1000 spectrophotometer (NanoDrop Technologies). The first strand of cDNA was produced using the cDNA Synthesis Kit for RT-PCR (Roche). For the cDNA synthesis reaction a total of 1 μg of RNA was used. For the real-time PCR, 10 ng of cDNA in a final volume of 20 μl was used with SYBR Green Master Mix 2× (Applied Biosystems) (3 identical experiments were conducted in triplicate). Two housekeeping genes were used as positive controls: GAPDH and beta-actin (ACTB).
The conditions of the QT-PCR reaction were: 10 min at 95° C., 20 sec at 95° C., and 30 sec at 60° C., for 50 cycles.
as §1
The oligonucleotides were tested in vitro (at a concentration of 2.5 μM) to determine their ability to inhibit the transcription of the gene they are directed against by measuring the levels of the gene messenger in cellular models in which the gene of interest is overexpressed. The methods used are the ones described in example 1. […]

MYCN gene [2] = test: QT-PCR, MYCN mRNA in RH30 cells; conditions: Table 9, siRNA and siRNA gapmer used at 200 nM with Lipofectamine 2000
Protocol: For the purpose of assessing the ability of the oligonucleotides of the present invention to modulate the expression of the target genes, their ability to reduce the quantity of messenger RNA was analyzed using the Real-Time PCR technique. For this purpose, use was made of 24-well plates, which were seeded with 5.0×10^4 cells with 0.3 ml of OPTI-MEM (GIBCO BRL) medium, 4% FBS and 2 mM L-glutammine (experiments in triplicate) per well. The cells were incubated for 24 hours at 37° C., in an atmosphere containing 5% CO2 to permit adherence to the base of the wells. Each oligonucleotide analyzed, except for the PNA oligonucleotides, was incubated beforehand with 2 μl of Lipofectamine 2000 (Invitrogen), with 0.3 mL of serum-free OPTI-MEM (GIBCO BRL) medium. For each well, the oligonucleotides were analyzed at the following final concentrations: • the antisense oligonucleotides siRNA and siRNA gapmer (i.e. the oligonucleotides containing one or more monomers of chemically modified nucleic acids at the 3' or 5' end, while in the central portion they have monomers of nucleic acids that have not been modified or have been modified at the level of the phosphodiester bond as a phosphorothioate bond) were used at 200 nM; • the antisense oligonucleotides containing phosphorothioate DNA monomers, the RNA antigene oligonucleotides (agRNA) and the oligonucleotides containing DNA monomers and LNA monomers were used at 10 μM; • the morpholino oligonucleotides were used at a concentration of 1 μM, and • the PNA oligonucleotides were administered at a concentration of 1 μM. The cells were treated with the oligonucleotides, adding FBS up to 4% 6 hours after administration of the same. After 24 hours the total RNA was extracted from each well and purified using the RNeasy Mini Kit (QIAGEN). Assays were performed on 8 cell lines obtained from 5 different human tumours which are correlated with MYCN expression, i.e.: • as a neuroblastoma model use was made of the cell lines Kelly, IMR-32 (where the MYCN gene is amplified and superexpressed) and SKNBE2c and LAN1 (where the MYCN gene is amplified and superexpressed and the p53 gene is mutated); • as a rabdomiosarcoma model use was made of the cell line RH30, where the MYCN gene is amplified and superexpressed; • as a Wilms' tumour model use was made of the cell line WiT49, where the MYCN gene is amplified and superexpressed; • as a retinoblastoma model use was made of the cell line Y79, where the MYCN gene is amplified and superexpressed; and • as a model of small cell lung cancer use was made of the cell line H69 where the MYCN gene is amplified and superexpressed. As a control, use was made of the same cell lines as listed above treated with sterile water instead of oligonucleotides. Each RNA sample was quantified (in duplicate) using a NanoDrop ND-1000 spectrophotometer (NanoDrop Technologies). The first strand of cDNA was produced using the cDNA Synthesis Kit for RT-PCR (Roche). For the cDNA synthesis reaction a total of 1 μg of RNA was used. For the real-time PCR, 10 ng of cDNA in a final volume of 20 μl was used with SYBR Green Master Mix 2× (Applied Biosystems) (3 identical experiments were conducted in triplicate). Two housekeeping genes were used as positive controls: GAPDH and beta-actin (ACTB). The conditions of the QT-PCR reaction were: 10 min at 95° C., 20 sec at 95° C., and 30 sec at 60° C., for 50 cycles. The PNAs having SEQ ID NO: 1-12 were also tested on different cell lines which overexpress MYCN (Kelly, SKNBE2c, RH30, […] 1 and H69). The results are shown in Table 6 and confirm the selectivity and specificity of the inhibition effect of the PNAs on the product of protein translation of the MYCN gene. Chimeric oligonucleotides comprising DNA monomers and LNA monomers and having the MYCN gene as their target were tested in vitro on alveolar rabdomyosarcoma cells (RH30). […]

[3] = system: rabdomyosarcoma cells (RH30); test: Cellular proliferation assay (ATP-Lite), RH30 cells; conditions: Table 9, siRNA and siRNA gapmer used at 200 nM
Protocol: For the purpose of assessing the gene modulation ability of the oligonucleotides of the present invention, the effect of their administration on cell viability was determined. For this purpose 5×10^3 cells per well were seeded into 96-well cell culture plates (experiments conducted in triplicate) with 100 μl of OPTI-MEM (GIBCO BRL) medium containing 4% FBS and 2 mM of L-glutammine. The PNA oligonucleotides were administered at different concentrations (1 μM-2.5 μM-5 μM-10 μM) in order to observe a dose-effect relationship. As regards all the other oligonucleotides, the concentrations at which they administered are listed in the paragraph: The viability of the treated cells was determined at 48, 72, 96 and 168 hours after treatment. Cell viability was assessed by means of an ATP-Lite assay (Luminescence ATP Detection Assay System, PerkinElmer) and is reported as the ratio between the average signal of the treated wells compared to the average value of the wells of untreated control cells. The cells were processed following the instructions provided with the kit. The assays were performed on the same cell lines used to determine the levels of the MYCN gene messenger and listed in the paragraph: Treatments with Oligonucleotides-QT-PCR. The PNAs having SEQ ID NO: 1-12 were also tested on different cell lines which overexpress MYCN (Kelly, SKNBE2c, RH30, […] 1 and H69). The results are shown in Table 6 and confirm the selectivity and specificity of the inhibition effect of the PNAs on the product of protein translation of the MYCN gene. Chimeric oligonucleotides comprising DNA monomers and LNA monomers and having the MYCN gene as their target were tested in vitro on alveolar rabdomyosarcoma cells (RH30). […] The antisense oligonucleotides designed and synthesized by the Applicant according to the parameters described in the present invention were analyzed in vitro on rabdomyosarcoma cells (RH30).

Substance | (Kelly) Cell Prolif. % (Kelly cells) | mRNA Inhibition (%)(Kelly) (MYCN gene [1]) | mRNA inhibition (%) (MYCN gene [2]) | Cell Prolif. (%) [3] | inhibitory activity (MYCN gene [1]; all groups of consecutive guanines of SEQ ID NO: 5 mutated)
SEQ ID NO: 46: PNA GTTGGGTGGATGTGGG, modified SEQ ID NO: 5 (all peptide nucleic acid (PNA); antigene PNA, 3' carrier peptide conjugation not given here per molecule) | 60% | 58% | – | – | –
SEQ ID NO: 34: double-stranded chimeric RNA / 2′-Fluoro siRNA against MYCN, sense CAGGAAGAUGAAGAGGAAGUU, antisense SEQ ID NO: 63 (antisense GUUCCUCUUCAUCUUCCUCUU; RNA with some 2'-fluoro monomers, positions not given here) | – | – | 59% | 52% | –
SEQ ID NO: 35: double-stranded chimeric RNA / LNA siRNA against MYCN, sense GAGGAAGAUGAAGAGGAAGTT, antisense SEQ ID NO: 64 (antisense CUUCCUCUUCAUCUUCCUCTT; RNA with some LNA monomers, positions not given here) | – | – | 34% | 68% | –
SEQ ID NO: 29: double-stranded siRNA against MYCN, sense GAGGAAGAUGAAGAGGAAG, antisense SEQ ID NO: 60 (antisense CUUCCUCUUCAUCUUCCUC; listed as RNA, chemistry not given here) | – | – | 85% | 28% | –
SEQ ID NO: 44: PNA GCTGAGTGGATGCGTG, modified SEQ ID NO: 5 with groups of consecutive guanines mutated (all peptide nucleic acid (PNA); antigene PNA, 3' carrier peptide conjugation not given here per molecule) | 89% | 25% | – | – | –
SEQ ID NO: 45: PNA GCTGGGTCGATGCGGG, modified SEQ ID NO: 5 with a group of consecutive guanines mutated (all peptide nucleic acid (PNA); antigene PNA, 3' carrier peptide conjugation not given here per molecule) | 69% | 47% | – | – | –
SEQ ID NO: 43: PNA GCTGAGTCGATGCGTG, SEQ ID NO: 5 with all groups of consecutive guanines mutated (all peptide nucleic acid (PNA); antigene PNA, 3' carrier peptide conjugation not given here per molecule) | 100% | 0% | – | – | inhibitory activity of the PNAs to be lost
